Laboratory results reported in US20040038369A1, “Airway-specific trypsin-like enzymes and method of using the same” (priority 2000, published 2004).

Tests used:
[1] = tested on: HB-EGF on surface of H292 cell membrane; assay: Surface antigen analysis (FACS) of HB-EGF on NCI-H292 cell membrane; format: cell-based, human
Description: (§1) NCI-H292 cells (purchased from ATCC) were cultured on a 10 cm dish in 10% FCS-containing RPMI-1640 until to reach a confluent state, subjected to the replacement of the culture medium by RPMI-1640 containing 0.1% of BSA, and further cultured for 24 hours. The cultured cells were washed with PBS, treated and floated in PBS containing 5 mM of EDTA at 37° C. for five minutes, and then suspended in 0.1%BSA-containing RPMI-1640 in a density of 1.0×10^7 cells/mL.
(§2) The above-described cell suspension and 0.1% BSA-containing RPMI-1640 containing HAST in a double concentration (600 mU/mL) were mixed with each other in equivalent amounts, respectively, and reacted with each other at 37° C. for 30 minutes (final cell concentration: 5.0×10^6 cells/mL, final HAST concentration: 300 mU/mL). The reaction solution was mixed with ice-cooled 1% FCS-containing PBS in a volume of 5 times that of the reaction solution to stop the reaction, and the treated solution was then supplied for a surface antigen analysis.
(§3) The cells subjected to the prescribed treatments were suspended in 1% FCS-containing PBS in a density of 1.0×10^7 cells/mL. 100 μL of the prepared cell suspension was mixed with a primary antigen (EGF back ground dyeing: 1 μg of normal mouse IgG1 (produced by R & D Corp.), EGF dyeing: 1 μg of an anti-EGF mouse monoclonal antibody (produced by R & D Corp.), HB-EGF back ground dyeing: free from the primary antigen, HB-EGF dyeing: 2 μg of an anti-HB-EGF goat polyclonal antibody (produced by R & D Corp.)) and reacted on ice for 30 minutes. The reaction product was once washed with 5 mL of 1% FCS-containing PBS, mixed with 2 μg of a secondary antigen (EGF back ground dyeing and EGF dyeing: FITC conjugated F(ab′)2 fragment to mouse IgG (produced by Dako Corp.), HB-EGF back ground dyeing and HB-EGF dyeing: Swine Anti-Goat Ig's Fluorescein Conjugate (produced by KPL Corp.)), and then reacted on ice for 30 minutes. The reaction solution was once washed with 5 mL of 1% FCS-containing PBS, and then mixed with Cell Fix (produced by Becton Dickinson Corp.) to immobilize the cells. The expression of the surface antigen was assayed with FACS Calibur (produced by Becton Dickinson Corp.) and analyzed with Cell Quest (produced by Becton Dickinson Corp.). Average fluorescence intensities were shown in the next table as the indicators of expression intensities.
(§4) HAST (600 mU/mL) was reacted with leupeptin (10 μM) or BB1101 (5 μM) in 0.1% BSA-containing RPMI-1640 on ice for 30 minutes, and the reaction solution was mixed with the equivalent amount of a cell suspension preliminarily treated with leupeptin (10 μM) or BB1101 (5 μM) at 37° C. for 30 minutes, and further treated at 37° C. for 30 minutes (final HAST concentration: 300 mU/mL, final leupeptin concentration: 10 μM, final BB1101 concentration: 5 μM, final cell concentration: 5.0×10^6 cells/mL). The reaction solution was mixed with ice-cooled 1% FCS-containing PBS in an amount of five times that of the reaction solution to stop the reaction, and then supplied for the surface antigen analysis.
(§5) The cells subjected to the prescribed treatments were suspended in 1% FCS-containing PBS in a density of 1.0×10^7 cells/mL. […]

[2] = tested on: EGF on surface of H292 cell membrane; assay: Surface antigen analysis (FACS) of EGF on NCI-H292 cell membrane; format: cell-based, human
Description: as §1, §2, §3, §4, §5

## HAST: human airway-specific trypsin-like enzyme; propeptide moiety bound to trypsin-like protein moiety via a disulfide bond
[1]; HAST 300 mU/mL
  cleavage of proHB-EGF on the surfaces of the cell membranes: cleaved
[1]; HAST 300 mU/mL, 37° C., 30 minutes, Back ground 4.5, PBS 8.72
  HB-EGF expression intensity on the surfaces of the cell membranes (average fluorescence intensity): 6.94
[1]; inhibitor experiment, HAST 300 mU/mL alone, Back ground 5.58, PBS 8.61
  HB-EGF expression intensity on the surfaces of the cell membranes (average fluorescence intensity): 6.26
[2]; HAST 300 mU/mL
  cleavage of proEGF on the surfaces of the cell membranes: cleaved
[2]; HAST 300 mU/mL, 37° C., 30 minutes, Back ground 4.62, PBS 7.26
  EGF expression intensity on the surfaces of the cell membranes (average fluorescence intensity): 4.88
[2]; inhibitor experiment, HAST 300 mU/mL alone, Back ground 8.44, PBS 10.79
  EGF expression intensity on the surfaces of the cell membranes (average fluorescence intensity): 8.33
